Patent US8969356B2, “Compounds useful as inhibitors of ATR kinase” (Vertex Pharmaceuticals Incorporated, priority 2010, dated 2015)

Tests used:
[1] = biological target: T1, ATR kinase (Homo sapiens, UniProt Q13535); experiment: ATR Inhibition Assay (radioactive-phosphate incorporation); assay type: biochemical
T1 construct: Assays were carried out at 25° C. in the presence of 5 nM full-length ATR
Method: Compounds were screened for their ability to inhibit ATR kinase using a radioactive-phosphate incorporation assay. Assays were carried out in a mixture of 50 mM Tris/HCl (pH 7.5), 10 mM MgCl2 and 1 mM DTT. Final substrate concentrations were 10 μM [γ-33P]ATP (3mCi 33P ATP/mmol ATP, Perkin Elmer) and 800 μM target peptide ([…] (SEQ. ID NO: 1)).
Assays were carried out at 25° C. in the presence of 5 nM full-length ATR. An assay stock buffer solution was prepared containing all of the reagents listed above, with the exception of ATP and the test compound of interest. 13.5 μL of the stock solution was placed in a 96 well plate followed by addition of 2 μL of DMSO stock containing serial dilutions of the test compound (typically starting from a final concentration of 15 μM with 3-fold serial dilutions) in duplicate (final DMSO concentration 7%). The plate was pre-incubated for 10 minutes at 25° C. and the reaction initiated by addition of 15 μL [γ-33P]ATP (final concentration 10 μM).
The reaction was stopped after […] by the addition of 30 μL 0.1M phosphoric acid containing 2 mM ATP. A multiscreen phosphocellulose filter 96-well plate (Millipore, Cat no. MAPHN0B50) was pretreated with 100 μL 0.2M phosphoric acid prior to the addition of 45 μL of the stopped assay mixture. The plate was washed with 5×200 μL 0.2M phosphoric acid. After drying, 100 μL Optiphase ‘SuperMix’ liquid scintillation cocktail (Perkin Elmer) was added to the well prior to scintillation counting (1450 Microbeta Liquid Scintillation Counter, Wallac).
After removing mean background values for all of the data points, Ki(app) data were calculated from non-linear regression analysis of the initial rate data using the Prism software package (GraphPad Prism version 3.0cx for Macintosh, GraphPad Software, San Diego Calif., USA).

[2] = tested on: HCT116 colorectal cancer cells; experiment: Cisplatin Sensitization Assay (96 h cell viability MTS); assay type: cell-based; conditions: concentration of compound required to reduce the IC50 of Cisplatin alone by at least 3-fold; HCT116, 96 h MTS
Method: Compounds can be screened for their ability to sensitize HCT116 colorectal cancer cells to Cisplatin using a 96 h cell viability (MTS) assay. […] Compounds and Cisplatin are then both added simultaneously to the cell media in 2-fold serial dilutions from a top final concentration of 10 μM as a full matrix of concentrations in a final cell volume of 200 μl, and the cells are then incubated at 37° C. in 5% CO2. After 96 h, 40 μl of MTS reagent (Promega G358a) is added to each well and the cells are incubated for 1 h at 37° C. in 5% CO2.

T1 sequence (Q13535 whole entry): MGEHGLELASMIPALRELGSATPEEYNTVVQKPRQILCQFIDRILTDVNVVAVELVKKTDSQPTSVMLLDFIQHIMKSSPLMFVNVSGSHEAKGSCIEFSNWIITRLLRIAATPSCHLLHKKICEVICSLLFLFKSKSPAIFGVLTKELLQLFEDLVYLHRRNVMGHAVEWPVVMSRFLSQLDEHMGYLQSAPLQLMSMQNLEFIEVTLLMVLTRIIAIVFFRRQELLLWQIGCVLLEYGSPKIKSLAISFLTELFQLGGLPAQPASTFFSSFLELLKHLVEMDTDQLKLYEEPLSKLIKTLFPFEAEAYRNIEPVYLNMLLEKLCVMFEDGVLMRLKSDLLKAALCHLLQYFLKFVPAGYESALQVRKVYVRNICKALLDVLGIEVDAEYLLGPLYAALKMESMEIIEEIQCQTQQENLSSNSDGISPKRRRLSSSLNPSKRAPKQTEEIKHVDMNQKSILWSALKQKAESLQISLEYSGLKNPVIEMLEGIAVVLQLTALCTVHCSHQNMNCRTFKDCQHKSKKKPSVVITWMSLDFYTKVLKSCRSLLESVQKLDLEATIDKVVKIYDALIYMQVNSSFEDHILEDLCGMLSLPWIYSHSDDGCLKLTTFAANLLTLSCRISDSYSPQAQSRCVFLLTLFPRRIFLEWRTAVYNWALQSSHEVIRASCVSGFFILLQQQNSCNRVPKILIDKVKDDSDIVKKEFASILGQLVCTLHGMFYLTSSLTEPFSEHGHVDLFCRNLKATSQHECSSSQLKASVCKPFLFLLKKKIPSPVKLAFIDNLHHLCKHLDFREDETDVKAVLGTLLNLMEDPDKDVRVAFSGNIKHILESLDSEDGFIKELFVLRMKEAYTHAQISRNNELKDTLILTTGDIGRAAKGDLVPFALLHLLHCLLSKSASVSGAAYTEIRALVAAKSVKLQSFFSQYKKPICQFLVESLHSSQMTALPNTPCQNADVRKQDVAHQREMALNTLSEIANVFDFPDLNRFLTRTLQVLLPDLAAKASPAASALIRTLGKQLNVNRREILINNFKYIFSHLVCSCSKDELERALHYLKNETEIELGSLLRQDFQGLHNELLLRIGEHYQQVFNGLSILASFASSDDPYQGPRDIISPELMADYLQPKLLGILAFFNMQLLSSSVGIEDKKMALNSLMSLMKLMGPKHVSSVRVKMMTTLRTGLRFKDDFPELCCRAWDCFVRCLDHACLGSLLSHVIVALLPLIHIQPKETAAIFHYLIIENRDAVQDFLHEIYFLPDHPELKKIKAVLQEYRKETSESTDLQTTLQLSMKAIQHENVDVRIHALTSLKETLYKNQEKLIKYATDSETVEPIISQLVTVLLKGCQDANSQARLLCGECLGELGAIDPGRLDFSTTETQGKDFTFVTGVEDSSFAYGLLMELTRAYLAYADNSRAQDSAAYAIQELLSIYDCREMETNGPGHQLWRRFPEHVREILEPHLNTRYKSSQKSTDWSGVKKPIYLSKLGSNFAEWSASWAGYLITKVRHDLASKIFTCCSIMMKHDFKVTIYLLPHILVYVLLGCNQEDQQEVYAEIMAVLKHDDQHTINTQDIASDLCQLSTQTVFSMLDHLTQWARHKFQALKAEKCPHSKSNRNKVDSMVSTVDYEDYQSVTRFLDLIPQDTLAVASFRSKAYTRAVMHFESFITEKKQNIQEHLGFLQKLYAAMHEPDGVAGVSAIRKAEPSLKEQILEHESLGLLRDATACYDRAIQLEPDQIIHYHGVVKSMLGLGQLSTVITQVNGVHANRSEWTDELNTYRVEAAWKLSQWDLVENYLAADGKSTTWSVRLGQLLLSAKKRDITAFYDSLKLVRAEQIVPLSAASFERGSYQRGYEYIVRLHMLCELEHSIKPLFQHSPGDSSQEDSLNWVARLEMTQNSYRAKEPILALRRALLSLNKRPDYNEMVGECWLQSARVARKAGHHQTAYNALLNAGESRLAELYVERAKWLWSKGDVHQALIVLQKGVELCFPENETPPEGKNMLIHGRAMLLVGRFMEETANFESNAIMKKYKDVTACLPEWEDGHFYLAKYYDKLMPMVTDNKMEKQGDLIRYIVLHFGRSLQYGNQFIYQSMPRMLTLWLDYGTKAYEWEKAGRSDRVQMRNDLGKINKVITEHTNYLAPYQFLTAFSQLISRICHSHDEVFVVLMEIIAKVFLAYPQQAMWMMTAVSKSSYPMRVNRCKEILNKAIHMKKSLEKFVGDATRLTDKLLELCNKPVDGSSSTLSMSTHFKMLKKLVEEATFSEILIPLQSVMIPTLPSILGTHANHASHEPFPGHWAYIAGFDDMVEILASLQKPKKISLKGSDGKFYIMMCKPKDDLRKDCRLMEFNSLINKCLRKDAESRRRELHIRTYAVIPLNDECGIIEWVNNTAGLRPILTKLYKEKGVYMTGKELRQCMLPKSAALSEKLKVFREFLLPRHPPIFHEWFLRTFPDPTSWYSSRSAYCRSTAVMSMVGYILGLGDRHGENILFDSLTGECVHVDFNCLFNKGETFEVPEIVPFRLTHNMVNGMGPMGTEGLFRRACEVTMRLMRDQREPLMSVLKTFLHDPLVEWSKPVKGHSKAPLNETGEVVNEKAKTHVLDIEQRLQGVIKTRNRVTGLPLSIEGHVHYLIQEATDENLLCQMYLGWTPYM

Row | Ki [1] [µM] | Compound | CP3 Shift [2] [µM]
1 | ≤ 0.1 | CC(C)S(=O)(=O)c1ccc(-c2cnc(N)c(C#Cc3ccccn3)n2)cc1 [Compound I-33, 5-(4-Isopropylsulfonylphenyl)-3-[2-(2-pyridyl)ethynyl]pyrazin-2-amine] | 2.5
2 | ≤ 0.1 | Nc1ncc(-c2ccc(S(=O)(=O)C3CCOCC3)cc2)nc1C#Cc1cccc(O)c1 [Compound I-34, 3-[2-[3-Amino-6-(4-tetrahydropyran-4-ylsulfonylphenyl)pyrazin-2-yl]ethynyl]phenol] | 0.079
3 | ≤ 0.1 | CC(C)S(=O)(=O)c1ccc(-c2cnc(N)c(C#Cc3ccccc3F)n2)cc1 [Compound I-40, 3-((2-fluorophenyl)ethynyl)-5-(4-(isopropylsulfonyl)phenyl)pyrazin-2-amine] | 2.5
4 | ≤ 0.1 | CC(C)S(=O)(=O)c1ccc(-c2cnc(N)c(C#Cc3ccccc3)n2)cc1 [Compound I-7, 5-(4-Isopropylsulfonylphenyl)-3-(2-phenylethynyl)pyrazin-2-amine] | 2.5
5 | ≤ 0.1 | CC(C)S(=O)(=O)c1ccc(-c2cnc(N)c(C#Cc3cccc(N)c3)n2)cc1 [Compound I-21, 3-[2-(3-Aminophenyl)ethynyl]-5-(4-isopropylsulfonylphenyl)pyrazin-2-amine] | 0.312
6 | ≤ 0.1 | CC(C)S(=O)(=O)c1ccc(-c2cnc(N)c(C#Cc3cccs3)n2)cc1 [Compound I-22, 5-(4-Isopropylsulfonylphenyl)-3-[2-(2-thienyl)ethynyl]pyrazin-2-amine] | 1.25
7 | ≤ 0.1 | CC(C)S(=O)(=O)c1ccc(-c2cnc(N)c(C#Cc3cccc(O)c3)n2)cc1 [Compound I-35, 3-[2-[3-Amino-6-(4-isopropylsulfonylphenyl)pyrazin-2-yl]ethynyl]phenol] | 0.118
8 | 0.1 to 1 | CC(C)S(=O)(=O)c1ccc(-c2cnc(N)c(C#Cc3cccc(OCCN4CCOCC4)c3)n2)cc1 [Compound I-36, 5-(4-Isopropylsulfonylphenyl)-3-[2-[3-(2-morpholinoethoxy)phenyl]ethynyl]pyrazin-2-amine] | –
9 | ≤ 0.1 | C[S+]([O-])c1ccccc1-c1cnc(N)c(C#Cc2cccc(O)c2)n1 (stereo not shown) [Compound I-23, 3-[2-[3-Amino-6-(2-methylsulfinylphenyl)pyrazin-2-yl]ethynyl]phenol] | –
10 | 0.1 to 1 | COc1ccccc1C#Cc1nc(-c2ccc(S(=O)(=O)C(C)C)cc2)cnc1N [Compound I-19, 5-(4-Isopropylsulfonylphenyl)-3-[2-(2-methoxyphenyl)ethynyl]pyrazin-2-amine] | –
11 | ≤ 0.1 | CC(C)S(=O)(=O)c1ccc(-c2cnc(N)c(C#Cc3cc(Cl)cc(CO)c3)n2)cc1 [Compound I-48, (3-((3-amino-6-(4-(isopropylsulfonyl)phenyl)pyrazin-2-yl)ethynyl)-5-chlorophenyl)methanol] | –
12 | ≤ 0.1 | COc1cccc(C#Cc2nc(-c3ccc(S(=O)(=O)C(C)C)cc3)cnc2N)c1 [Compound I-3, 5-(4-Isopropylsulfonylphenyl)-3-[2-(3-methoxyphenyl)ethynyl]pyrazin-2-amine] | –
